For assay [1], the system named is PTZ-induced clonic seizures in mice. Briefly: PTZ seizure test. The conditions noted are these: PTZ 100 mg/kg s.c.; compound 100 mg/kg i.p. The format is in vivo. The method, then:
(§1) Behavioral experiments were carried out in male Albino Swiss (CD-1) mice weighing 18–22 g. The mice were kept in cages, in groups of 10 animals. They had free access to food and water before experiments, and were maintained at room temperature 22–24 °C, under 12:12 (light/dark) cycle. For the assays the animals were selected randomly. After the experiments the animals were euthanized by cervical dislocation. Experimental procedures for in vivo tests were approved by the Local Ethics Committee of the Jagiellonian University in Krakow (Approval No. 33/2018; release date: 1.02.2018) and the treatment of animals was performed in full accordance with ethical standards laid down in respective Polish and EU regulations (Directive 2010/63/EU).
Oxaliplatin was purchased from Activate Scientific GmbH (Prien, Germany). PTZ and STZ were provided by Merck KGaA (Darmstadt, Germany). For the in vivo tests, the compound 1 was suspended in 1% Tween 80 solution (Polskie Odczynniki Chemiczne, Gliwice, Poland), then being administered intraperitoneally 1 h before tests. […]
This test was carried out according to the method recently described. […] In this assay the latency to the occurrence of the first clonic seizure episode was measured and compared in drug-treated and control mice. […] The number of seizure episodes was also recorded in each group. • 6-Hz Test

For assay [2], the target named is T1, Human MAO-B (Homo sapiens, UniProt P27338).
T1 construct: purchased Merck KGaA (Darmstadt, Germany)
T1 sequence (P27338 1-520): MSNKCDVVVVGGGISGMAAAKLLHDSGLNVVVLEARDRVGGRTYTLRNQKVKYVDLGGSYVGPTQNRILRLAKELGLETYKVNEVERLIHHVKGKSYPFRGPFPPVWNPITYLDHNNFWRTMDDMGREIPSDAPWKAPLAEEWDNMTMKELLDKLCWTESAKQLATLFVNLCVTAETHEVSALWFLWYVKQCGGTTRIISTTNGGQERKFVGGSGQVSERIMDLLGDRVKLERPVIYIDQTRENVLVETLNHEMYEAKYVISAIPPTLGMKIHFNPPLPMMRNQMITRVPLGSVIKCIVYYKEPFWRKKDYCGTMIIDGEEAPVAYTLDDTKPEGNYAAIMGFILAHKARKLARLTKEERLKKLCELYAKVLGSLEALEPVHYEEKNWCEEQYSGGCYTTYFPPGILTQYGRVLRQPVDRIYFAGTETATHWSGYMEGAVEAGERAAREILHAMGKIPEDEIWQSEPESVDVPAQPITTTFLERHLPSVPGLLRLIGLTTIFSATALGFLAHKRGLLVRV
Briefly: MAO-B inhibition, Amplex Red Monoamine Oxidase kit. The format is biochemical. The method, then:
Human MAO-B was purchased from Merck KGaA (Darmstadt, Germany). The activity of compound 1 and 8 was measured in the presence of p-tyramine (200 μM). […] Firstly, inhibitors’ activity was measured in a concentration of 1 μM. […] For compounds that inhibited the enzyme by more than 50% further studies were conducted to obtain IC50 from concentration–response curves. All calculations were made in Microsoft Excel and GraphPadPrism software. All experiments were performed in duplicate and data are expressed as mean ± SEM.

Assay [3] deals with cold hyperalgesia in oxaliplatin-treated mice. Put plainly: oxaliplatin-induced neuropathic pain model, cold plate test. Type of assay: in vivo. The conditions noted are these: 10 and 30 mg/kg i.p., early and late phase. On the procedure:
as §1
Oxaliplatin was purchased from Activate Scientific GmbH (Prien, Germany). PTZ and STZ were provided by Merck KGaA (Darmstadt, Germany). For the in vivo tests, the compound 1 was suspended in 1% Tween 80 solution (Polskie Odczynniki Chemiczne, Gliwice, Poland), then being administered intraperitoneally 1 h before tests. For the evaluation of anticonvulsant properties of the test compound, a fixed dose of 100 mg/kg, was used. Since many AEDs at lower doses are used as analgesic drugs, for pain tests the doses 10 and 30 mg/kg were selected. […]
The effect of 1 on cold pain threshold was assessed using the cold plate test. […]

The nature of assay [4]: ferric reducing antioxidant power (FRAP) assay. As to conditions: % of ascorbic acid activity; compounds and AA at 1 mM. The method, then:
The total antioxidant potential of aryl-substituted phenylalanine derivatives was determined using FRAP assay. The FRAP reagent was prepared first by mixing acetate buffer (300 mM, pH 3.6), a solution of 10 mM TPTZ (2,4,6-tripyridyl-s-triazine, Sigma-Aldrich, Inc., St. Louis, MO, USA) in 40 mM HCl and 20 mM of iron (III) chloride hexahydrate (FeCl3 × 6H2O, Chempur, Piekary Śląskie, Poland) at 10:1:1 (v/v/v). The FRAP reagent (190 μL) and 1 mM of tested compound (10 μL) was added next to each well, mixed and incubated for 30 min. The absorbance was measured using a microplate reader EnSpire (PerkinElmer, Waltham, MA USA) at 593 nm. AA (1 mM, AMARA, Kraków, Poland) was used as the reference antioxidant. The results were expressed as % of ascorbic acid activity (%AAA). Analyses were performed in triplicate. • ORAC-FL

The subject of assay [5] is 6-Hz psychomotor seizures in mice. Put plainly: 6-Hz test. The format is in vivo. The conditions noted are these: 100 mg/kg i.p. The method, then: as §1
Oxaliplatin was purchased from Activate Scientific GmbH (Prien, Germany). PTZ and STZ were provided by Merck KGaA (Darmstadt, Germany). For the in vivo tests, the compound 1 was suspended in 1% Tween 80 solution (Polskie Odczynniki Chemiczne, Gliwice, Poland), then being administered intraperitoneally 1 h before tests. For the evaluation of anticonvulsant properties of the test compound, a fixed dose of 100 mg/kg, was used. Since many AEDs at lower doses are used as analgesic drugs, for pain tests the doses 10 and 30 mg/kg were selected.
This test was performed according to Barton et al.. […]

The subject of assay [6] is native AMPA receptors. The conditions noted are these: cited from earlier work.

The IC50 is the concentration that inhibits the measured activity by half. Usually inhibition stands for the share of the control response that was lost under treatment. What is called Ki is the dissociation constant of the complex between target and ligand, obtained from inhibition or displacement.

Each structure is given as a SMILES string. Where “and” joins values, the source holds several entries; their conditions need not be identical. Equal values may be shown once.

Regarding `NC(Cc1cc(-c2cc(O)ccc2O)c(Cl)c([N+](=O)[O-])c1)C(=O)O` (centres unmarked) [Compound 1], in assay [1], the “latency to first clonus” value is recorded as “not able to prolong latency to the first clonus” and the “number of seizure episodes” value is recorded as “remained unaffected”. Besides, the “maximum MAO-B inhibition attained” value in assay [2] (dose-dependent curve) amounted to 52%. Besides, the half-inhibitory concentration (IC50) in assay [2] (p-tyramine 200 μM) is 278 ± 29 nM. For the same molecule, the inhibition at 1 µM in assay [2] (read-out: MAO-B inhibition, screening) was over 50%. Further, the “effect on cold hyperalgesia, cold plate test” value in assay [3] is “unable to attenuate cold hyperalgesia”. Moreover, the “FRAP (%AAA)” value in assay [4] was 748.5 %AAA and 748.49 %AAA. In addition, the “Mortality rate (%)” value in assay [5] is given as 0%. Moreover, the “X/Y, number of mice protected (X) per number of mice tested (Y)” value in assay [5] (1 h before test) is given as 3/4. Also, in assay [6], the “selectivity over NMDA and KA receptors” value is “high selectivity”. For the same molecule, the inhibitory constant (Ki) in assay [6] (native AMPA receptors, rat brain membranes, mean of three experiments, read-out: [3H]AMPA Ki) was 920 nM.

The record behind these values is article PMC8840081, “Phenylalanine-Based AMPA Receptor Antagonist as the Anticonvulsant Agent with Neuroprotective Activity—In Vitro and In Vivo Studies” (Molecules, 2022).
